How the values were obtained:
[1] = target: T1, human Kv3.2 channels (hKv3.2) (Homo sapiens, UniProt Q96PR1); assay: hKv3.2 recombinant cell assay, IonWorks Quattro planar array electrophysiology; type: cell-based; settings: activity quantified by EC50
T1 construct: expressed in transfected cells
T1 sequence (Q96PR1 1-638): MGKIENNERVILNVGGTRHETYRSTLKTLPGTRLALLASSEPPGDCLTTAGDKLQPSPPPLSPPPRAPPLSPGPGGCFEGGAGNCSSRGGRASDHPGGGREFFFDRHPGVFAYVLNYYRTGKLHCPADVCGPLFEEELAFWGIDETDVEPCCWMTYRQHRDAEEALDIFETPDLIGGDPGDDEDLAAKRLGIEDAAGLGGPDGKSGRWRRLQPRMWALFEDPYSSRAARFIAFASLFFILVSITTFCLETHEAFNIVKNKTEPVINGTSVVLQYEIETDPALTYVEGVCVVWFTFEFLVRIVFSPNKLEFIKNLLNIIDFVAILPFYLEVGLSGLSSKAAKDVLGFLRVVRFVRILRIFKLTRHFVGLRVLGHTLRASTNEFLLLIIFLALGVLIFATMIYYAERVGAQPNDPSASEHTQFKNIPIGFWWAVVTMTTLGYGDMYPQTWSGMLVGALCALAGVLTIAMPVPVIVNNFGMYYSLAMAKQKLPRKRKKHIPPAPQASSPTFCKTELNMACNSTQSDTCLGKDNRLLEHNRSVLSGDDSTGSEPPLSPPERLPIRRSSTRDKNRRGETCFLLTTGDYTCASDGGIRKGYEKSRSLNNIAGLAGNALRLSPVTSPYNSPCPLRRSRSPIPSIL
From the text: The ability of the compounds of the invention to modulate the voltage-gated potassium channel subtypes Kv3.2/3.1 may be determined using the following assay. The assay may also be used to determine the ability of compounds of the invention to modulate the voltage-gated potassium channel Kv3.3. Analogous methods may be used to investigate the ability of the compounds of the invention to modulate other channel subtypes.
To assess compound effects on human Kv3.2 channels (hKv3.2), a stable cell line expressing human Kv3.2 channels (hKv3.2) was created by transfecting Chinese Hamster Ovary (CHO)—K1 cells with a pCIH5-hKv3.2 vector. Cells were cultured in DMEM/F12 medium supplemented by 10% Foetal Bovine Serum, 1× non-essential amino acids (Invitrogen) and 500 ug/ml of Hygromycin-B (Invitrogen). Cells were grown and maintained at 37° C. in a humidified environment containing 5% CO2 in air. […]
Experiments were conducted at room temperature using IonWorks Quattro™ planar array electrophysiology technology (Molecular Devices Corp.) with PatchPlate™ PPC. […] Planar electrode hole resistances (Rp) were determined by applying a 10 mV voltage step across each well. […] Test pulses protocol may be performed in the absence (pre-read) and presence (post-read) of the test compound. Pre- and post-reads may be separated by the compound addition followed by a 3 minute incubation. […]

[2] = Determination of in vivo pharmacokinetic parameters (blood and brain) in rats, with and without Elacridar; settings: rat, oral 1 mg/kg
Experimental: Adult male rats (Charles River, Italy) were dosed with test compound orally at 1 mg/kg (5 ml/kg, in 5% v/v DMSO, 0.5% w/v HPMC in water) and intravenously at 0.5 mg/kg (2 ml/kg, in 5% v/v DMSO 40% w/v PEG400 in saline). After oral administration, blood samples were collected under deep Isofluorane anesthesia from the portal vein and heart of each rat (1 rat per time point). After intravenous administration, serial blood samples were collected from the lateral tail vein of each rat. A further group of rats (n=1 per test compound) received a single intravenous administration of the PgP transport inhibitor, Elacridar (3 mg/kg) shortly before the oral administration of the test compound at 1 mg/kg, as above. Blood and brain samples were collected at a single timepoint of 0.5 h after dose administration for these animals. In all cases, blood samples were collected into potassium EDTA tubes.
Blood and brain samples were assayed for test compound concentration using a method based on protein precipitation with acetonitrile followed by HPLC/MS-MS analysis with an optimized analytical method.
The concentrations of test compound in blood (expressed as ng/ml) and brain (expressed as ng/g) at the different time points following either oral or intravenous dosing were analysed using a non-compartmental pharmacokinetic model using WinNonLin Professional version 4.1. The following parameters were drived:
Intravenous dosing: Maximum concentration over time (Cmax), integrated concentration over time (AUC), clearance (Clb), volume of distribution (Vss) and half-life (t1/2).
Oral dosing: Cmax, time of maximum concentration (Tmax), AUC, bioavailability (F %), fraction absorbed (Fa %), blood to brain ratio (AUC BB), and Fold-change in AUC BB in the presence of Elacridar.

Cc1n[nH]c(=O)n1-c1ccc(Oc2cccc3c2C2(CC2)CO3)nc1 [Example 15, 5-methyl-4-[6-(spiro[1-benzofuran-3,1′-cyclopropan]-4-yloxy)pyridin-3-yl]-2,4-dihydro-3H-1,2,4-triazol-3-one]
selectivity for modulation of Kv3.2 channels over Kv3.1 channels [1]: demonstrates selectivity for Kv3.2 channels | AUC BB relative to Reference Example 87 and Reference Example 88 of WO2011069951A1 ([2]; AUC BB from blood and brain): at least two fold | change in AUC BB in the presence of Elacridar ([2]; Elacridar 3 mg/kg i.v., blood and brain at 0.5 h, p-glycoprotein interaction): limited change

Reference: patent US11180461B2, “Triazoles as Kv3 inhibitors” (AUTIFONY THERAPEUTICS LIMITED, priority 2012, dated 2021)
